From ChEMBL document CHEMBL3046832, “Synthesis of some sulfonamides, disubstituted sulfonylureas or thioureas and some structurally related variants. A class of promising antitumor agents” (2007)

Columns and labels:
Assay type in all cases: functional
SK-OV-3 = assay: Cytotoxicity against Homo sapiens (human) SKOV3 cells after 48 hr by SRB assay; settings: SK-OV-3, 48 h
[1] = Cytotoxicity against Homo sapiens (human) NCI-H322 cells after 48 hr by SRB assay; settings: NCI-H322, 48 h
BT-549 = assay: Cytotoxicity against Homo sapiens (human) BT549 cells after 48 hr by SRB assay; settings: BT-549, 48 h
786-0 = assay: Cytotoxicity against Homo sapiens (human) 786-0 cells after 48 hr by SRB assay; settings: 786-0, 48 h
SF-268 = assay: Cytotoxicity against Homo sapiens (human) SF268 cells assessed as cellular growth after 48 hr by Alamar blue assay; design: concentration or dose not given beside the values
OVCAR-4 = assay: Cytotoxicity against Homo sapiens (human) OVCAR4 cells after 48 hr by SRB assay; settings: OVCAR-4, 48 h
PC-3 = assay: Cytotoxicity against Homo sapiens (human) PC3 cells after 48 hr by SRB assay; settings: PC-3, 48 h
COLO 205 = assay: Cytotoxicity against Homo sapiens (human) COLO205 cells after 48 hr by SRB assay; settings: COLO 205, 48 h
HCC 2998 = assay: Cytotoxicity against Homo sapiens (human) HCC2998 cells after 48 hr by SRB assay; settings: HCC 2998, 48 h
SK-MEL-28 = assay: Cytotoxicity against Homo sapiens (human) SK-MEL-28 cells after 48 hr by SRB assay; settings: SK-MEL-28, 48 h
U-251 = assay: Cytotoxicity against Homo sapiens (human) U251 cells after 48 hr by SRB assay; settings: U-251, 48 h
SNB-19 = assay: Cytotoxicity against Homo sapiens (human) SNB19 cells after 48 hr by SRB assay; settings: SNB-19, 48 h
T47D = assay: Cytotoxicity against Homo sapiens (human) T47D cells after 48 hr by SRB assay
SW-620 = assay: Cytotoxicity against Homo sapiens (human) SW620 cells after 48 hr by SRB assay; settings: SW-620, 48 h
[2] = Cytotoxicity against Homo sapiens (human) non-small cell lung cancer cells after 48 hr by SRB assay; settings: Cancer cell lines
SF-539 = assay: Cytotoxicity against Homo sapiens (human) SF539 cells after 48 hr by SRB assay; settings: SF-539, 48 h
SK-MEL-2 = assay: Cytotoxicity against Homo sapiens (human) SK-MEL-2 cells after 48 hr by SRB assay; settings: SK-MEL-2, 48 h
DU-145 = assay: Cytotoxicity against Homo sapiens (human) DU145 cells after 48 hr by SRB assay; settings: DU-145, 48 h
[3] = Cytotoxicity against Homo sapiens (human) leukemia cells after 48 hr by SRB assay; settings: Leukemia cell
UACC-62 = assay: Cytotoxicity against Homo sapiens (human) UACC62 cells after 48 hr by SRB assay; settings: UACC-62, 48 h
HT-29 = assay: Cytotoxicity against Homo sapiens (human) HT-29 cells after 48 hr by SRB assay; settings: HT-29, 48 h
EKVX = assay: Cytotoxicity against Homo sapiens (human) EKVX cells after 48 hr by SRB assay
KM12 = assay: Cytotoxicity against Homo sapiens (human) KM12 cells after 48 hr by SRB assay; settings: KM12, 48 h
[4] = Cytotoxicity against Homo sapiens (human) prostate cancer cells after 48 hr by SRB assay; settings: Cancer cell lines
[5] = Cytotoxicity against Homo sapiens (human) melanoma cells after 48 hr by SRB assay; settings: Melanoma cell
UO-31 = assay: Cytotoxicity against Homo sapiens (human) UO31 cells after 48 hr by SRB assay; settings: UO-31, 48 h
SK-MEL-5 = assay: Cytotoxicity against Homo sapiens (human) SK-MEL-5 cells after 48 hr by SRB assay; settings: SK-MEL-5, 48 h
CAKI-1 = assay: Cytotoxicity against Homo sapiens (human) Caki1 cells after 48 hr by SRB assay; settings: CAKI-1, 48 h
NCI-H522 = assay: Cytotoxicity against Homo sapiens (human) NCI-H522 cells after 48 hr by SRB assay; settings: NCI-H522, 48 h
HCT-15 = assay: Cytotoxicity against Homo sapiens (human) HCT15 cells after 48 hr by SRB assay; settings: HCT-15, 48 h
OVCAR-3 = assay: Cytotoxicity against Homo sapiens (human) OVCAR3 cells after 48 hr by SRB assay; settings: OVCAR-3, 48 h
[6] = Cytotoxicity against Homo sapiens (human) ovarian cancer cells after 48 hr by SRB assay; settings: Cancer cell lines
MCF7 [7] = assay: Cytotoxicity against Homo sapiens (human) MCF7 cells assessed as cellular growth after 48 hr by Alamar blue assay; design: concentration or dose not given beside the values
NCI-H23 = assay: Cytotoxicity against Homo sapiens (human) NCI-H23 cells after 48 hr by SRB assay; settings: NCI-H23, 48 h
NCI-H460 = assay: Cytotoxicity against Homo sapiens (human) NCI-H460 cells after 48 hr by SRB assay; settings: NCI-H460, 48 h
M14 = assay: Cytotoxicity against Homo sapiens (human) M14 cells after 48 hr by SRB assay; settings: M14, 48 h
IGROV-1 = assay: Cytotoxicity against Homo sapiens (human) IGROV1 cells after 48 hr by SRB assay; settings: IGROV-1, 48 h
[8] = Cytotoxicity against Homo sapiens (human) NCI-ADR-RES cells after 48 hr by SRB assay
RXF 393 = assay: Cytotoxicity against Homo sapiens (human) RXF393 cells after 48 hr by SRB assay; settings: RXF 393, 48 h
MCF7 [9] = assay: Cytotoxicity against Homo sapiens (human) MCF7 cells after 48 hr by SRB assay; settings: MCF7, 48 h
RPMI-8226 = assay: Cytotoxicity against Homo sapiens (human) RPMI8226 cells after 48 hr by SRB assay; settings: RPMI-8226, 48 h
ACHN = assay: Cytotoxicity against Homo sapiens (human) ACHN cells after 48 hr by SRB assay
MDA-MB-231 = assay: Cytotoxicity against Homo sapiens (human) MDA-MB-231 cells after 48 hr by SRB assay; settings: MDA-MB-231, 48 h
[10] = Cytotoxicity against Homo sapiens (human) CNS cancer cells after 48 hr by SRB assay; settings: Cancer cell lines
MDA-MB-435 = assay: Cytotoxicity against Homo sapiens (human) MDA-MB-435 cells after 48 hr by SRB assay; settings: MDA-MB-435, 48 h
[11] = Cytotoxicity against Homo sapiens (human) breast cancer cells after 48 hr by SRB assay; settings: Cancer cell lines

## O=S(=O)(NC(=S)Nc1ccccc1)c1ccc(N2N=C3c4ccccc4CC3C2c2cccs2)cc1 (centres undefined)
SK-OV-3
  GI50: 49.5 µM
[1]
  GI50: 56.6 µM
BT-549
  GI50: 24.6 µM
786-0
  GI50: 19.7 µM
SF-268
  Activity: <=32%
OVCAR-4
  GI50: 69.8 µM
PC-3
  GI50: 22.9 µM
COLO 205
  GI50: 41.9 µM
HCC 2998
  GI50: 13.9 µM
SK-MEL-28
  GI50: 53.8 µM
U-251
  GI50: 26.2 µM
SNB-19
  GI50: 33.8 µM
T47D
  GI50: > 100 µM
SW-620
  GI50: 30 µM
[2]
  GI50: 30.5 µM
  TGI: 48.4 µM
SF-539
  GI50: 22.7 µM
SK-MEL-2
  GI50: 55.9 µM
DU-145
  GI50: 17.8 µM
[3]
  GI50: 27.4 µM
  TGI: 85 µM
UACC-62
  GI50: 18.5 µM
HT-29
  GI50: 36.2 µM
EKVX
  GI50: 19.5 µM
KM12
  GI50: 21.5 µM
[4]
  GI50: 20.3 µM
  TGI: 47.9 µM
[5]
  GI50: 32.2 µM
  TGI: 68.4 µM
UO-31
  GI50: 51.2 µM
SK-MEL-5
  GI50: 20.8 µM
CAKI-1
  GI50: 18.5 µM
NCI-H522
  GI50: 32.8 µM
HCT-15
  GI50: 22.6 µM
OVCAR-3
  GI50: 17.2 µM
[6]
  GI50: 43 µM
  TGI: 81.3 µM
MCF7 [7]
  Activity: <=32%
NCI-H23
  GI50: 17.6 µM
NCI-H460
  GI50: 24.6 µM
M14
  GI50: 22.7 µM
IGROV-1
  GI50: 65.3 µM
[8]
  GI50: 19.3 µM
RXF 393
  GI50: 78.1 µM
MCF7 [9]
  GI50: 3.1 µM
RPMI-8226
  GI50: 30.3 µM
ACHN
  GI50: 26.4 µM
MDA-MB-231
  GI50: 24.8 µM
[10]
  GI50: 34 µM
  TGI: 77.5 µM
MDA-MB-435
  GI50: 19.4 µM
[11]
  GI50: 30.8 µM
  TGI: 57.3 µM

## O=C1CS/C(=N\S(=O)(=O)c2ccc(N3N=C4c5ccccc5CC4C3c3cccs3)cc2)N1C(=O)c1ccccc1 (centres undefined)
SK-OV-3
  GI50: > 100 µM
[1]
  GI50: 16.6 µM
BT-549
  GI50: 33.5 µM
786-0
  GI50: 48.8 µM
SF-268
  Activity: <=32%
OVCAR-4
  GI50: > 100 µM
PC-3
  GI50: 38.1 µM
COLO 205
  GI50: 51 µM
HCC 2998
  GI50: 17.6 µM
SK-MEL-28
  GI50: > 100 µM
U-251
  GI50: 36.3 µM
SNB-19
  GI50: 77 µM
T47D
  GI50: > 100 µM
SW-620
  GI50: 38.5 µM
[2]
  GI50: 49.3 µM
  TGI: 85.9 µM
SF-539
  GI50: 44.6 µM
SK-MEL-2
  GI50: > 100 µM
DU-145
  GI50: 38.2 µM
[3]
  GI50: 31.2 µM
  TGI: 84.5 µM
UACC-62
  GI50: 23.2 µM
HT-29
  GI50: 76 µM
EKVX
  GI50: 42.4 µM
KM12
  GI50: 21.4 µM
[4]
  GI50: 38.1 µM
  TGI: > 100 µM
[5]
  GI50: 73.3 µM
  TGI: > 100 µM
UO-31
  GI50: > 100 µM
SK-MEL-5
  GI50: 22.7 µM
CAKI-1
  GI50: 39 µM
NCI-H522
  GI50: 60.1 µM
HCT-15
  GI50: 56.3 µM
OVCAR-3
  GI50: 59.2 µM
[6]
  GI50: 60.9 µM
  TGI: > 100 µM
MCF7 [7]
  Activity: <=32%
NCI-H23
  GI50: 25.1 µM
NCI-H460
  GI50: > 100 µM
M14
  GI50: 44.7 µM
IGROV-1
  GI50: 28.3 µM
[8]
  GI50: > 100 µM
RXF 393
  GI50: 63.9 µM
MCF7 [9]
  GI50: > 100 µM
RPMI-8226
  GI50: 34 µM
ACHN
  GI50: 23.6 µM
MDA-MB-231
  GI50: 44.6 µM
[10]
  GI50: 64.9 µM
  TGI: > 100 µM
MDA-MB-435
  GI50: 37.4 µM
[11]
  GI50: 63 µM
  TGI: > 100 µM

## O=C(c1ccccc1)n1c(-c2ccccc2)cs/c1=N\S(=O)(=O)c1ccc(N2N=C3c4ccccc4CC3C2c2cccs2)cc1 (centres undefined)
SK-OV-3
  GI50: > 100 µM
[1]
  GI50: 22.3 µM
BT-549
  GI50: 69.7 µM
786-0
  GI50: 21.8 µM
SF-268
  Activity: <=32%
OVCAR-4
  GI50: > 100 µM
PC-3
  GI50: 39.2 µM
COLO 205
  GI50: 98.1 µM
HCC 2998
  GI50: 14 µM
SK-MEL-28
  GI50: > 100 µM
U-251
  GI50: 32 µM
SNB-19
  GI50: 59.2 µM
T47D
  GI50: > 100 µM
SW-620
  GI50: 58.8 µM
[2]
  GI50: 43.7 µM
  TGI: 83.9 µM
SF-539
  GI50: 58.6 µM
SK-MEL-2
  GI50: > 100 µM
DU-145
  GI50: 47 µM
[3]
  GI50: 32.9 µM
  TGI: 80.3 µM
UACC-62
  GI50: 27.3 µM
HT-29
  GI50: 73.3 µM
EKVX
  GI50: 40.7 µM
KM12
  GI50: 38.3 µM
[4]
  GI50: 43.1 µM
  TGI: > 100 µM
[5]
  GI50: 51.6 µM
  TGI: 98.2 µM
UO-31
  GI50: 98.1 µM
SK-MEL-5
  GI50: 24.4 µM
CAKI-1
  GI50: 38 µM
NCI-H522
  GI50: 23.7 µM
HCT-15
  GI50: 61.4 µM
OVCAR-3
  GI50: 55.2 µM
[6]
  GI50: 72 µM
  TGI: > 100 µM
MCF7 [7]
  Activity: <=32%
NCI-H23
  GI50: 13.1 µM
NCI-H460
  GI50: > 100 µM
M14
  GI50: 33 µM
IGROV-1
  GI50: > 100 µM
[8]
  GI50: > 100 µM
RXF 393
  GI50: 37 µM
MCF7 [9]
  GI50: > 100 µM
RPMI-8226
  GI50: 32.3 µM
ACHN
  GI50: 43.8 µM
MDA-MB-231
  GI50: 41.3 µM
[10]
  GI50: 64.5 µM
  TGI: > 100 µM
MDA-MB-435
  GI50: 31.1 µM
[11]
  GI50: 65.3 µM
  TGI: > 100 µM
